Measurements taken from patent US8283322B2, “Formulations for nonsurgical exogenous crosslink therapy” (Orthopeutics, LP, priority 2008, dated 2012).
In brackets after ≈: the same amount, converted by molar mass.

Tests used:
[1] = system: annulus fibrosus specimens from bovine lumbar intervertebral discs; assay: Tear resistance of annulus fibrosus (radial tear propagation); conditions: soaked two days in 0.15M PBS plus 0.33% genipin
From the text: Ten annulus fibrosus circumferentially aligned specimens from bovine lumbar (T12-L5) intervertebral discs were divided into two groups and either soaked two days in a 0.15M PBS or a 0.15M PBS plus 0.33% genipin solution. A custom loading fixture attached to a uniaxial materials testing system was designed to hold an annulus specimen perpendicular to the travel of a metal cylinder placed in a pre-existing radial cut. The cylinder was then pulled radially (perpendicular to lamellae) towards the external layer. Time dependent force and displacement data was acquired simultaneously. Tearing resistance was quantified in two ways: peak force normalized by specimen thickness and tearing energy per area of tear. Differences between groups were analyzed using the Mann-Whitney non-parametric test.

calf lumbar spinal discs = assay: Diffusion study in calf lumbar spinal discs (area of diffusion zone, ImageJ); conditions: 0.1% (w/v) SDS in PBS, 1 hr, 37° C.; p=0.021
Experimental: FIG. 12—Diffusion kinetics of genipin and BSA in calf lumbar spinal discs. 200 μl of 0.33% (w/v) or 1 mg/ml BSA-Texas Red were injected at a depth of 1 cm into the discs of individual calf lumbar motion segments and incubated for 1, 3 or 6 hours at 37° C. Samples were transected and the area of each diffusion zone at each time point and for each reagent was determined from photographs using ImageJ software.
FIG. 13—Effect of surfactants on the diffusion of GP and BSA-TR. 200 μl of 0.33% (w/v) or 1 mg/ml BSA-Texas Red formulated in PBS in the absence of presence of 0.1% (w/v) of either Tween-20 or SDS were injected at a depth of 1 cm into the discs of individual calf lumbar motion segments. Segments were incubated for 1 hr at 37° C. and the samples were then transected and the area of each diffusion zone determined from photographs using ImageJ software.
In order to observe the diffusion kinetics of these markers, GP (0.33% (w/v)) or BSA-TR (1 mg/ml) were dissolved in PBS and 200 μl injected at a depth of 1 cm into the discs of individual calf lumbar motion segments and incubated at 37° C. for 1, 3 or 6 hrs in sealed ZipLoc bags containing a sheet of paper towel moistened with H2O. […] In some cases, however, diffusion zones merged and were not possible to quantify and in subsequent experiments injections were limited to the left and right lateral regions. […]

physchem [2] = type: physicochemical
From the text: In the case of crosslinking agents that are not very water-soluble, additional reagents may be required to maintain the solubility of the crosslinking agent. Such reagents should be miscible with water and function to increase the solubility of the crosslinking agent by reducing the hydrophilicity of the aqueous medium. […] At the upper limit, GP was soluble in 100% DMSO to a level of 2.6M. […] Thus manipulation of the buffer concentration and the addition of co-solvents allows for the manipulation of the crosslinking reagent concentration to the desired level. The values were all determined at ambient room temperature. Crosslinker solubility could also be increased by increasing the temperature of the solvent.

physchem [3] = type: physicochemical; conditions: for half-life: buffer
From the text: In the case of the crosslinking agent genipin (GP), using a quantitative HPLC assay, the inventors have shown that the agent is unstable in aqueous solution. The rate of degradation can be very rapid and is dependent on pH. […] In all cases this instability is not suitable for long term storage of a genipin-containing crosslinking agent at ambient temperature. […] The inventors have also shown that GP is stable as a powder for at least 1 year. These observations have consequences for the manufacture and/or final form of a crosslinking reagent containing GP, i.e., the GP would have to be stored either in powdered form or in a suitable non-aqueous, water-miscible solvent. The solvent could be, but is not limited to, ethanol, methanol, propanol, acetonitrile or dimethyl sulfoxide.

- solubility (physchem [2]; aqueous buffer): 60.4 mM (≈ 13.7 mg/mL)
- solubility (physchem [2]; aqueous with cosolvent or surfactant or cyclodextrin): 74.6 mM (≈ 16.9 mg/mL)
- solubility (physchem [2]; organic solvent or mixture): 2600 mM (≈ 588 mg/mL)
- solubility (physchem [2]; pH 9, aqueous buffer): 39.6 mM (≈ 8.96 mg/mL)
- solubility (physchem [2]; pH 9, aqueous with cosolvent or surfactant or cyclodextrin): 63.3 mM (≈ 14.3 mg/mL)
- degradation in non-aqueous solvents (physchem [3]): no GP degradation was detected
- stability as a powder (physchem [3]): at least 1 year
- half-life (physchem [3]; pH 4): 214 h
- half-life (physchem [3]; pH 5): 219 h
- half-life (physchem [3]; pH 6): 135 h
- half-life (physchem [3]; pH 7): 60 h
- half-life (physchem [3]; pH 8): 18 h
- half-life (physchem [3]; pH 9): 2.8 h
Compound: COC(=O)C1=CO[C@@H](O)[C@@H]2C(CO)=CC[C@H]12 [Genipin, genipin]
- Total energy per area of tear ([1]; p=0.047 vs control): 40.2 mJ/mm^2
- Normalized peak force ([1]; p=0.076 vs control): 42.7 N/mm
- enhancement of diffusion by SDS (calf lumbar spinal discs): approximately 30%
